According to patent US11484258B2, “Free radical consumption speed information acquisition method and NASH determination method” (KYUSHU UNIVERSITY, NATIONAL UNIVERSITY CORPORATION, priority 2016, dated 2022):
Like-named read-outs stand apart in the source and are kept apart here.

Tests used:
[1] = test system: homogenate solution of the liver
liver = assay: in vivo DNP-MRI of the liver after intravenous CmP: redox metabolic rate (free radical consumption speed); set-up: species or system mouse
Description: C57BL6 mice (female, 5 weeks old) were purchased from Charles River Laboratories Japan, Inc. (Yokohama, Japan), and were acclimated for 1 week before starting the experiment. Five mice were housed per cage and were fed with a methionine-choline deficient diet or a normal diet in a room where the temperature and the circadian rhythm were controlled. Each of a methionine-choline deficient diet group (NASH model mouse group) and a normal diet group (normal mouse group) was divided into 5 groups to be subjected to DNP-MRI measurement at 1, 2, 4, 6 and 8 weeks, and blood collection, autopsy and liver tissue collection were performed to evaluate the pathological conditions.
A mouse (NASH model mouse) was anesthetized with isoflurane (4% for introduction, 2% for maintenance) and was fixed, with a pressure-sensitive tape for skin, on a local detector for liver measurement (a surface coil) and a holder with the stomach side faced downward. The body temperature of the mouse was 37±1° C. during the experiment. The mouse was transferred to a DNP-MRI resonance apparatus and the apparatus was set such that the whole liver was a measurement target, and then, CmP (Carbamoyl-PROXYL, redox contrast agent) was intravenously injected into the NASH mode mouse, and the DRI-MRI measurement was started.
TR: 1200 ms; TE: 25 ms; TEPR: 600 ms; number of phase-encoding gradient steps: 64; […]; FOV: 48 mm×48 mm; matrix size: 64×64 (in-plane resolution: 0.75 mm); slice thickness: 30 mm; number of average: 1; and scanning time: 79 s. OMRI data was analyzed by using Image J Software Package (http://rsb.info.nih.gov/ij/).
Besides, the mouse group fed with the normal diet (the normal mouse group) was similarly subjected as a control to the DRI-MRI evaluation.
With respect to the NASH model mouse group, the DNP-MRI measurement was performed 1 week (MCD1), 2 weeks (MCD2), 4 weeks (MCD4), 6 weeks (MCD6) and 8 weeks (MCD8) after feeding the methionine-choline deficient diet (MCD) was started, and the redox metabolic rate of the CmP radical in the liver was calculated.
Also with respect to the normal mouse group, the DNP-MRI measurement was similarly performed 1 week (ND1), 2 weeks (ND2), 4 weeks (ND4), 6 weeks (ND6) and 8 weeks (ND8) after feeding the normal diet was started, and the redox metabolic rate of the CmP radical in the liver was calculated.

[2] = test system: homogenate solution of the liver; assay: redox metabolism of CmP by liver homogenate solution, cytoplasmic and blood components (FIG. 7); details: KCN (mitochondrial electron transport chain inhibitor) added

CC1(C)CC(C(N)=O)C(C)(C)N1[O] (stereo not shown) [CmP, Carbamoyl-PROXYL]
reaction with a cytoplasmic component or a blood component [1]: minimally reacts
redox metabolism by a homogenate solution of the liver [1]: redox metabolized
disappearance of the CmP (image intensity in region of interest) (liver; NASH model mouse compared with normal mouse): significantly slower
redox metabolic rate (disappearing rate) in the liver (liver; NASH model mouse group (methionine-choline deficient diet), from 1 week (MCD1), versus normal mouse): significant decrease
time after administration at which the CmP radical still remained (liver; NASH model mouse, epigastrium DNP-MRI images, FIG. 3): 13 min
time after administration at which the CmP radical had mostly disappeared (liver; normal mice (control), epigastrium DNP-MRI images, FIG. 3): 5.5 min
redox metabolism by a homogenate solution of the liver [2]: metabolism is stopped
